Molecular target: T1, F508del (Homo sapiens, UniProt P13569, DEL508-508)
T1 construct: expressed in transfected cells
Experiment: Protocol 1: membrane potential optical assay (FLIPR III, voltage sensing dye), identification of potentiator compounds
Type: cell-based
Settings: Table 3, compounds of Table 1
How it was run: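 NIH 3T3 fibroblasts stably expressing F508del were cultured at 27° C for 24 hrs for temperature correction, then treated with compounds or DMSO and loaded with a voltage-sensing redistribution dye. Forskolin added with a Cl⁻ gradient activated the channel; membrane-potential fluorescence on FLIPR III reported increased gating.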

T1 sequence (P13569 with tags, fused parts or gaps DEL508-508): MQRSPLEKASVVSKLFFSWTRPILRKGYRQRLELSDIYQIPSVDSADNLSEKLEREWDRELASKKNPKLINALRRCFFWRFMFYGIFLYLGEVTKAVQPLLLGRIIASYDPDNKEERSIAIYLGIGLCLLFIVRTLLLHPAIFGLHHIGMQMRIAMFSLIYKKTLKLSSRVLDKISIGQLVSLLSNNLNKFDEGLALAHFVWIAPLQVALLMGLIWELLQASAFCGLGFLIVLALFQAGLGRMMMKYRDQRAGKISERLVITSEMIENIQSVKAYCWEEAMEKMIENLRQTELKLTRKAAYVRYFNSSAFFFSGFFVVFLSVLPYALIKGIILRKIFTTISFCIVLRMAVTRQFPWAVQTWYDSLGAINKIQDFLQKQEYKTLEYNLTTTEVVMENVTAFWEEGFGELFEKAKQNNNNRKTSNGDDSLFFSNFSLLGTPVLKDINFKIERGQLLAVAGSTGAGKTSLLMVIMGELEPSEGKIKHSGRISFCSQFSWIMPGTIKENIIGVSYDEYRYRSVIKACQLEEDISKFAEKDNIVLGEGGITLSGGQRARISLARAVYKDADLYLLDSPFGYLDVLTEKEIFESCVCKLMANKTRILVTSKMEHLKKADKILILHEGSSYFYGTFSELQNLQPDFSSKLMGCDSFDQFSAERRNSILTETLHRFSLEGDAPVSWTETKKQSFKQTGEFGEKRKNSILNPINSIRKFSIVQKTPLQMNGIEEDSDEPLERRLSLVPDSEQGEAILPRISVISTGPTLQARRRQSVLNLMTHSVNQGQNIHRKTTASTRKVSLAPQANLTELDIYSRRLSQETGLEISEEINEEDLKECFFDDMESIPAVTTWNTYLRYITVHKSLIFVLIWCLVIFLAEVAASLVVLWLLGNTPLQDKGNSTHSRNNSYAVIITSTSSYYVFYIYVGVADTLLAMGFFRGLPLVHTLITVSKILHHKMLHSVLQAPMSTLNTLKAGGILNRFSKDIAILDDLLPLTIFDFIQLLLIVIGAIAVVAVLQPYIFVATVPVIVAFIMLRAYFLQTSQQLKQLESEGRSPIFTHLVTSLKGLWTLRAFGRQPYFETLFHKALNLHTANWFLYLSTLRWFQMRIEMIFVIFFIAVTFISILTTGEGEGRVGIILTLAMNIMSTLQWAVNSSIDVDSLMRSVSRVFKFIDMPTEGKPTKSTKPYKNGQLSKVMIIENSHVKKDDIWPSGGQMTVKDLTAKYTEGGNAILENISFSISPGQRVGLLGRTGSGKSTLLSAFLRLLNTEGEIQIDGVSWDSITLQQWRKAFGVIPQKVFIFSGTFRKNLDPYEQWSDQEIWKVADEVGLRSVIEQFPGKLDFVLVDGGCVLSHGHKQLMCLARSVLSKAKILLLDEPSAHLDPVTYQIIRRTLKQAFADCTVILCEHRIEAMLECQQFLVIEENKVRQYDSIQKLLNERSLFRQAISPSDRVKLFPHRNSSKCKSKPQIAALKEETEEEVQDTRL

Compound	EC30
COc1c(C)cccc1-c1ccc(C(=O)NS(=O)(=O)c2ccc[nH]c2=O)c(N2C[C@@H](C)CC2(C)C)n1 [Compound 1880, 6-(2-methoxy-3-methyl-phenyl)-N-[(2-oxo-1H-pyridin-3-yl)sulfonyl]-2-[(4S)-2,2,4-trimethylpyrrolidin-1-yl]pyridine-3-carboxamide]	++ (“++” means between 3 uM and 10 uM)
C/C=C/COc1cccc(S(=O)(=O)NC(=O)c2cccnc2N2CC(C)CC2(C)C)n1 (stereo not shown) [Compound 1881, N—[[6-[(E)-but-2-enoxy]-2-pyridyl]sulfonyl]-2-(2,2,4-trimethylpyrrolidin-1-yl)pyridine-3-carboxamide]	+++ (“+++” means <3 uM)
CC(C)CS(=O)(=O)N1CCC=C(c2ccc(C(=O)NS(=O)(=O)c3cccc(N)n3)c(N3C[C@@H](C)CC3(C)C)n2)C1 [Compound 1882, N-[(6-amino-2-pyridyl)sulfonyl]-6-(1-isobutylsulfonyl-3,6-dihydro-2H-pyridin-5-yl)-2-[(4S)-2,2,4-trimethylpyrrolidin-1-yl]pyridine-3-carboxamide]	+ (“+” means greater than 10 uM)
C[C@@H]1CN(c2nc(C(C)(C)C)c(C(O)C(O)C(C)(C)C)cc2C(=O)NS(=O)(=O)c2cccc(N)n2)C(C)(C)C1 (stereo partly shown) [Compound 1883]	+++ (“+++” means <3 uM)
CC1CCC(Oc2cccc(S(=O)(=O)NC(=O)c3cccnc3N3CC(C)CC3(C)C)n2)C1 (stereo not shown) [Compound 1884, N—[[6-(3-methylcyclopentoxy)-2-pyridyl]sulfonyl]-2-(2,2,4-trimethylpyrrolidin-1-yl)pyridine-3-carboxamide]	+++ (“+++” means <3 uM)
CC(C)COc1cc(F)cc(-c2ccc(C(=O)NS(=O)(=O)c3cccc(O)c3)c(N3C[C@@H](C)CC3(C)C)n2)c1 [Compound 1885, 6-(3-fluoro-5-isobutoxy-phenyl)-N-(3-hydroxyphenyl)sulfonyl-2-[(4S)-2,2,4-trimethylpyrrolidin-1-yl]pyridine-3-carboxamide]	+++ (“+++” means <3 uM)
COc1ccc(-c2cnc(N3CC(C)CC3(C)C)c(C(=O)NS(=O)(=O)c3cccc(N)n3)c2)cn1 (stereo not shown) [Compound 1886, N-[(6-amino-2-pyridyl)sulfonyl]-5-(6-methoxy-3-pyridyl)-2-(2,2,4-trimethylpyrrolidin-1-yl)pyridine-3-carboxamide]	++ (“++” means between 3 uM and 10 uM)
[2H]C([2H])([2H])C([2H])(COc1ccn(-c2ccc(C(=O)NS(=O)(=O)c3cccnc3N)c(N3C[C@@H](C)CC3(C)C)n2)n1)C([2H])([2H])[2H] [Compound 1887, N-[(2-amino-3-pyridyl)sulfonyl]-6-[3-[2,3,3,3-tetradeuterio-2-(trideuteriomethyl)propoxy]pyrazol-1-yl]-2-[(4S)-2,2,4-trimethylpyrrolidin-1-yl]pyridine-3-carboxamide]	+++ (“+++” means <3 uM)
CC1CN(c2ncc(C3=CC4CCC3C4)cc2C(=O)NS(=O)(=O)c2cccc(N)n2)C(C)(C)C1 (stereo not shown) [Compound 1888, N-[(6-amino-2-pyridyl)sulfonyl]-5-(3-bicyclo[2.2.1]hept-2-enyl)-2-(2,2,4-trimethylpyrrolidin-1-yl)pyridine-3-carboxamide]	++ (“++” means between 3 uM and 10 uM)
Cc1cc(OC(C)C)cc(-c2cnc(N3CC(C)CC3(C)C)c(C(=O)NS(=O)(=O)c3cccc(N)n3)c2)c1 (stereo not shown) [Compound 1889, N-[(6-amino-2-pyridyl)sulfonyl]-5-(3-isopropoxy-5-methyl-phenyl)-2-(2,2,4-trimethylpyrrolidin-1-yl)pyridine-3-carboxamide]	+++ (“+++” means <3 uM)
Cc1cccc(C)c1Oc1nc(-c2cc(F)cc(OCC(C)(C)O)c2)ccc1C(=O)NS(=O)(=O)c1cccc(N)n1 [Compound 1890, N-[(6-amino-2-pyridyl)sulfonyl]-2-(2,6-dimethylphenoxy)-6-[3-fluoro-5-(2-hydroxy-2-methyl-propoxy)phenyl]pyridine-3-carboxamide]	++ (“++” means between 3 uM and 10 uM)
CC(Oc1nc(N2C[C@@H](C)CC2(C)C)c(C(=O)NS(=O)(=O)c2cccc(N)n2)cc1F)C1CCOCC1 (stereo partly drawn) [Compound 1891, N-[(6-amino-2-pyridyl)sulfonyl]-5-fluoro-6-(1-tetrahydropyran-4-ylethoxy)-2-[(4S)-2,2,4-trimethylpyrrolidin-1-yl]pyridine-3-carboxamide]	+++ (“+++” means <3 uM)
Cc1ccc(CNc2cccc(S(=O)(=O)NC(=O)c3cccnc3N3CC(C)CC3(C)C)n2)cc1 (stereo not shown) [Compound 1892, N—[[6-(p-tolylmethylamino)-2-pyridyl]sulfonyl]-2-(2,2,4-trimethylpyrrolidin-1-yl)pyridine-3-carboxamide]	+++ (“+++” means <3 uM)
CO[C@@H]1CCN(S(=O)(=O)NC(=O)c2ccc(-c3cc(F)cc(OCC(C)C)c3)nc2N2C[C@@H](C)CC2(C)C)C1 [Compound 1893, 6-(3-fluoro-5-isobutoxy-phenyl)-N-[(3R)-3-methoxypyrrolidin-1-yl]sulfonyl-2-[(4S)-2,2,4-trimethylpyrrolidin-1-yl]pyridine-3-carboxamide]	+++ (“+++” means <3 uM)
CC(C)CCOc1cccc(-c2cnc(N3CC(C)CC3(C)C)c(C(=O)NS(=O)(=O)c3cccc(N)n3)c2)c1 (stereo not shown) [Compound 1894, N-[(6-amino-2-pyridyl)sulfonyl]-5-(3-isopentyloxyphenyl)-2-(2,2,4-trimethylpyrrolidin-1-yl)pyridine-3-carboxamide]	+++ (“+++” means <3 uM)
CC(C)COc1cnn(-c2ccc(C(=O)NS(=O)(=O)c3cccnc3N)c(N3C[C@@H](C)CC3(C)C)n2)c1 [Compound 1895, N-[(2-amino-3-pyridyl)sulfonyl]-6-(4-isobutoxypyrazol-1-yl)-2-[(4S)-2,2,4-trimethylpyrrolidin-1-yl]pyridine-3-carboxamide]	+++ (“+++” means <3 uM)
CC(C)COc1ccn(-c2ccc(C(=O)NS(=O)(=O)c3ccc[nH]c3=O)c(N3C[C@@H](C)CC3(C)C)n2)n1 [Compound 1896, 6-(3-isobutoxypyrazol-1-yl)-N-[(2-oxo-1H-pyridin-3-yl)sulfonyl]-2-[(4S)-2,2,4-trimethylpyrrolidin-1-yl]pyridine-3-carboxamide]	+++ (“+++” means <3 uM)
CC(C)Oc1ccccc1-c1ccc(C(=O)NS(=O)(=O)N2CC[C@H](N)C2)c(N2C[C@@H](C)CC2(C)C)n1 [Compound 1897, N-[(3S)-3-aminopyrrolidin-1-yl]sulfonyl-6-(2-isopropoxyphenyl)-2-[(4S)-2,2,4-trimethylpyrrolidin-1-yl]pyridine-3-carboxamide]	+++ (“+++” means <3 uM)
Cc1ccccc1Nc1cccc(S(=O)(=O)NC(=O)c2cccnc2N2CC(C)CC2(C)C)n1 (stereo not shown) [Compound 1898, N—[[6-(2-methylanilino)-2-pyridyl]sulfonyl]-2-(2,2,4-trimethylpyrrolidin-1-yl)pyridine-3-carboxamide]	++ (“++” means between 3 uM and 10 uM)
CC1CN(c2ncccc2C(=O)NS(=O)(=O)c2cccc(OCc3ccc(F)cc3Cl)n2)C(C)(C)C1 (stereo not shown) [Compound 1899, N—[[6-[(2-chloro-4-fluoro-phenyl)methoxy]-2-pyridyl]sulfonyl]-2-(2,2,4-trimethylpyrrolidin-1-yl)pyridine-3-carboxamide]	+++ (“+++” means <3 uM)
C[C@@H]1CN(c2nc(-c3ccc(C(F)(F)F)cc3)ccc2C(=O)NS(=O)(=O)N2CC[C@H](N)C2)C(C)(C)C1 [Compound 1900, N-[(3S)-3-aminopyrrolidin-1-yl]sulfonyl-6-[4-(trifluoromethyl)phenyl]-2-[(4S)-2,2,4-trimethylpyrrolidin-1-yl]pyridine-3-carboxamide]	++ (“++” means between 3 uM and 10 uM)
CC(C)COc1cc(F)cc(-c2ccc(C(=O)NS(=O)(=O)c3cccc(N)n3)c(N3CCCCC(C)(C)C3)n2)c1 [Compound 1901, N-[(6-amino-2-pyridyl)sulfonyl]-2-(3,3-dimethylazepan-1-yl)-6-(3-fluoro-5-isobutoxy-phenyl)pyridine-3-carboxamide]	+++ (“+++” means <3 uM)
CC1CN(c2ncccc2C(=O)NS(=O)(=O)c2cccc(Oc3ccc(C(C)C)cc3)n2)C(C)(C)C1 (stereo not shown) [Compound 1902, N—[[6-(4-isopropylphenoxy)-2-pyridyl]sulfonyl]-2-(2,2,4-trimethylpyrrolidin-1-yl)pyridine-3-carboxamide]	+++ (“+++” means <3 uM)
CC(C)Oc1ccc(-c2ccc(C(=O)NS(=O)(=O)c3cccnc3N)c(N3C[C@@H](C)CC3(C)C)n2)cc1 [Compound 1903, N-[(2-amino-3-pyridyl)sulfonyl]-6-(4-isopropoxyphenyl)-2-[(4S)-2,2,4-trimethylpyrrolidin-1-yl]pyridine-3-carboxamide]	+++ (“+++” means <3 uM)
COc1cc(F)c(F)cc1-c1ccc(C(=O)NS(=O)(=O)c2ccc[nH]c2=O)c(N2C[C@@H](C)CC2(C)C)n1 [Compound 1904, 6-(4,5-difluoro-2-methoxy-phenyl)-N-[(2-oxo-1H-pyridin-3-yl)sulfonyl]-2-[(4S)-2,2,4-trimethylpyrrolidin-1-yl]pyridine-3-carboxamide]	+++ (“+++” means <3 uM)
CC1CN(c2ncccc2C(=O)NS(=O)(=O)c2cccc(NC(C)c3ccccc3)n2)C(C)(C)C1 (stereo not shown) [Compound 1905, N—[[6-(1-phenylethylamino)-2-pyridyl]sulfonyl]-2-(2,2,4-trimethylpyrrolidin-1-yl)pyridine-3-carboxamide]	+++ (“+++” means <3 uM)
CC1CN(c2ncccc2C(=O)NS(=O)(=O)c2cccc(Nc3cccc(Cl)c3Cl)n2)C(C)(C)C1 (stereo not shown) [Compound 1906, N—[[6-(2,3-dichloroanilino)-2-pyridyl]sulfonyl]-2-(2,2,4-trimethylpyrrolidin-1-yl)pyridine-3-carboxamide]	+++ (“+++” means <3 uM)
CCN(CC)c1nc(-c2ccc(C(=O)NS(=O)(=O)c3cccc(N)n3)c(N3CC(C)CC3(C)C)n2)ccc1C (stereo not shown) [Compound 1907, N-[(6-amino-2-pyridyl)sulfonyl]-6-[6-(diethylamino)-5-methyl-2-pyridyl]-2-(2,2,4-trimethylpyrrolidin-1-yl)pyridine-3-carboxamide]	+++ (“+++” means <3 uM)

From patent US10758534B2 (Vertex Pharmaceuticals Incorporated, priority 2014, dated 2020)
